Measurements as given in PubChem BioAssay (NCI).
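These data come from cells grown in 96-well plates and exposed to compound for 48 hours at five concentrations. GI50: concentration for 50% inhibition of growth. TGI denotes the concentration required for complete inhibition of growth.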

Tests used:
Assay in all cases: growth of human tumour cells (NCI), 48 h
SK-MEL-2 melanoma = tested on: SK-MEL-2 melanoma
OVCAR-8 ovarian = tested on: OVCAR-8 ovarian
LOX IMVI melanoma = tested on: LOX IMVI melanoma
OVCAR-3 ovarian = tested on: OVCAR-3 ovarian
RXF 393 renal = tested on: RXF 393 renal
SW-620 colon = tested on: SW-620 colon
MCF7 breast = tested on: MCF7 breast
OVCAR-4 ovarian = tested on: OVCAR-4 ovarian
SN12C renal = tested on: SN12C renal
MALME-3M melanoma = tested on: MALME-3M melanoma

Row | Structure (SMILES) | TGI (SK-MEL-2 melanoma) [µM] | TGI (OVCAR-8 ovarian) [µM] | TGI (LOX IMVI melanoma) [µM] | TGI (OVCAR-3 ovarian) [µM] | TGI (RXF 393 renal) [µM] | TGI (SW-620 colon) [µM] | TGI (MCF7 breast) [µM] | TGI (OVCAR-4 ovarian) [µM] | TGI (SN12C renal) [µM] | TGI (MALME-3M melanoma) [µM] | GI50 (SK-MEL-2 melanoma) [µM] | GI50 (OVCAR-8 ovarian) [µM] | GI50 (LOX IMVI melanoma) [µM] | GI50 (OVCAR-3 ovarian) [µM] | GI50 (RXF 393 renal) [µM] | GI50 (SW-620 colon) [µM] | GI50 (MCF7 breast) [µM] | GI50 (OVCAR-4 ovarian) [µM] | GI50 (SN12C renal) [µM] | GI50 (MALME-3M melanoma) [µM]
1 | NC(Cc1cc(Br)c(O)c(Br)c1)C(=O)O (stereo not given) | > 100 | > 100 | > 100 | > 100 | > 100 | > 100 | > 100 | > 100 | > 100 | > 100 | – | – | – | – | – | – | – | – | – | –
2 | COc1ccc(C2=C(Br)C(=O)OC2)cc1Cl | > 100 | > 52.7 | 46.5 | > 89.8 | > 72.4 | > 100 | > 93 | > 100 | 52.3 | > 78.3 | > 91.2 | 20.2 | 18.9 | 45.7 | 26.8 | 32.2 | 29.6 | 61.4 | 22.1 | 37.3
3 | NC(=O)Cc1ccccc1Oc1nccc(-c2c(-c3ccc(F)cc3)ncn2C2CCNCC2)n1 | > 25 | > 25 | > 25 | > 25 | > 25 | > 25 | > 25 | > 25 | > 25 | > 25 | > 25 | > 25 | > 25 | > 25 | > 25 | > 25 | > 25 | > 25 | > 25 | > 25
4 | O=C1OCC2=C1C(c1ccccc1)c1cc3c(cc1N2CCO)CCC3 (stereo not given) | > 8.97 | > 25 | > 25 | 0.0975 | 0.138 | > 25 | > 25 | > 25 | > 25 | > 25 | 0.0901 | 0.144 | 0.176 | 0.0467 | 0.0597 | 0.0879 | 0.0841 | 0.127 | 0.172 | 0.0609
5 | CC(C)[C@@H]1NC(=O)[C@]2(C)CSC(=N2)c2csc(n2)CNC(=O)C[C@@H](/C=C/CCS)OC1=O | 1.49 | > 100 | 0.355 | 4.12 | 0.33 | 2.28 | > 100 | > 100 | > 100 | > 100 | 0.049 | 0.0858 | 0.131 | 0.359 | 0.0521 | 0.227 | 0.274 | 0.416 | 0.403 | 0.0295
6 | O=C(Nc1cccnc1)c1cccs1 | > 100 | > 100 | > 100 | > 100 | > 100 | > 100 | > 100 | > 100 | > 100 | > 100 | > 100 | 8.94 | > 100 | 1.19 | 7.36 | 2.09 | 1.67 | 1.11 | 25.8 | > 100
7 | COC(=O)c1c2c(c[n+]([O-])c1C)C(=O)C(NCc1ccccc1)=CC2=O | 3.35 | 1.16 | 1.32 | 0.796 | 2.48 | 1.29 | 0.726 | 0.835 | 1.22 | 0.294 | 1.19 | 0.311 | 0.279 | 0.256 | 1.05 | 0.319 | 0.224 | 0.232 | 0.318 | 0.127
8 | Cc1ccccc1NC(=O)N/C(N)=N/c1nc2ccccc2s1 | > 100 | > 43.2 | > 100 | 0.267 | 0.464 | > 100 | > 100 | > 100 | > 100 | > 100 | > 100 | 0.0979 | 0.0759 | 0.0358 | 0.03 | 0.0427 | 0.0359 | 0.667 | 0.0853 | 0.0693
9 | CCCCCCCCCCCCCCCCCC(=O)[O][Sn]([CH2]CCC)([CH2]CCC)[CH2]CCC | 0.369 | 0.451 | 0.38 | 0.254 | 0.253 | 0.289 | 0.267 | 0.245 | 0.403 | 0.327 | 0.171 | 0.197 | 0.133 | 0.126 | 0.1 | 0.137 | 0.134 | 0.108 | 0.152 | 0.141
10 | O=C(c1ccc(F)c(F)c1Nc1ccc(I)cc1F)N1CC(O)([C@H]2CCCCN2)C1 | 0.702 | 26.9 | 5.49 | 25.2 | 8.76 | 15 | 21.3 | 17.7 | 19.7 | 0.0976 | 0.135 | 12 | 1.05 | 12.1 | 2.08 | 0.34 | 6.56 | 3.81 | 3.96 | 0.019
11 | O=c1oc2c(Br)c(O)c(Br)cc2c2ccccc12 | 62.7 | > 100 | 68.9 | 40.7 | > 100 | > 100 | 48.7 | 89.9 | 84.4 | 64.8 | – | – | – | – | – | – | – | – | – | –
12 | NC(=O)c1ncn(C2OC(CO)C(O)C2O)n1 (stereo not given) | > 100 | > 100 | > 100 | > 100 | > 100 | > 100 | > 100 | > 100 | > 100 | > 100 | > 100 | 45.4 | 53.6 | 74.9 | > 100 | 22.8 | 36.4 | > 100 | 85 | > 100
